Data taken from patent US10676509B2, “Surface-immobilized antimicrobial peptoids” (Northwestern University, priority 2008, dated 2020).
Non-standard residues stand in square brackets, D forms with d. Residues, ends and D or L forms follow the SMILES beside them. Dopa = N[C@@H](Cc1ccc(O)c(O)c1)C(=O)O; Nme = COCCNCC(=O)O

Columns and labels:
E. coli = assay type: cell-based, Escherichia coli (ATCC 35218); details: 16 h
Experimental: (§1) The polymers were initially tested to determine their antibacterial properties in the solution state. Antibacterial activities of the compounds were tested using the methods described above for both Gram-negative and Gram-positive bacterial strains.
(§2) The minimum inhibitory concentration (MIC) for each polymer was determined according to Clinical Laboratory Standards Institute (CLSI) broth microdilution protocols (M7-A6). The procedure explained previously was followed (Chongsiriwatana et al., supra); briefly, serial dilutions of the polymers were prepared in Mueller-Hinton broth (MHB) in 96-well microtiter plates and bacterial inoculum in MHB was added to each well (˜5.0×10^4 CFU/well). Optical density was monitored at 590 nm for 16 h at 35° C.

B. subtilis = assay type: cell-based, Bacillus subtilis (ATCC 6633); details: 16 h
Experimental: as §1, §2

S. epidermidis = assay type: cell-based, Staphylococcus epidermidis RP62A (ATCC 12228); details: 16 h
Experimental: as §1, §2

P. aeruginosa = assay type: cell-based, Pseudomonas aeruginosa (ATCC 700829); details: 16 h
Experimental: as §1, §2

[1] = molecular target: T1, fibrinogen from human plasma (Homo sapiens, UniProt P02671+P02675+P02679); assay: Short-term fibrinogen adsorption on modified TiO2 sensors using OWLS; details: Table 7, fibrinogen 3 mg/ml, 20 min, 37° C., mean ± SD
T1 construct: fibrinogen from human plasma was dissolved at 3 mg/ml concentrations in buffer B; purchased Aldrich (Milwaukee, Wis.); host or cells: human plasma
T1 sequence (P02671 20-644 isoform P02671-2 limits assumed): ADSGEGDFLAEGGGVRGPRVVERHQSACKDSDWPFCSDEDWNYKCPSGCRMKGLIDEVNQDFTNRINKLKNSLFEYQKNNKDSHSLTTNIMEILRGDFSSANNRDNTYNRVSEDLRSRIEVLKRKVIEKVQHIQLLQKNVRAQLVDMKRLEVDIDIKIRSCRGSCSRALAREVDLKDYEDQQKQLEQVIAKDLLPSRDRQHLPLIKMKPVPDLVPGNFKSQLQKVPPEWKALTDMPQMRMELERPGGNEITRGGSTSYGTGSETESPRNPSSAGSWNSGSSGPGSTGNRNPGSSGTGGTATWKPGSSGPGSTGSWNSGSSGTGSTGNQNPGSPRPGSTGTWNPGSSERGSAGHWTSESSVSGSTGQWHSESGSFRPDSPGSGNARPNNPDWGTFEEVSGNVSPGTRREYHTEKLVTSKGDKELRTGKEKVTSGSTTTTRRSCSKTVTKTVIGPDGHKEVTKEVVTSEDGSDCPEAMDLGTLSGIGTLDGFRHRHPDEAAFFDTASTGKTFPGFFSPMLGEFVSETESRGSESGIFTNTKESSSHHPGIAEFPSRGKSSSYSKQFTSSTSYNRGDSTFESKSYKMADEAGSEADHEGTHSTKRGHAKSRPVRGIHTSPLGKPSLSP
T1 sequence (P02675 31-491): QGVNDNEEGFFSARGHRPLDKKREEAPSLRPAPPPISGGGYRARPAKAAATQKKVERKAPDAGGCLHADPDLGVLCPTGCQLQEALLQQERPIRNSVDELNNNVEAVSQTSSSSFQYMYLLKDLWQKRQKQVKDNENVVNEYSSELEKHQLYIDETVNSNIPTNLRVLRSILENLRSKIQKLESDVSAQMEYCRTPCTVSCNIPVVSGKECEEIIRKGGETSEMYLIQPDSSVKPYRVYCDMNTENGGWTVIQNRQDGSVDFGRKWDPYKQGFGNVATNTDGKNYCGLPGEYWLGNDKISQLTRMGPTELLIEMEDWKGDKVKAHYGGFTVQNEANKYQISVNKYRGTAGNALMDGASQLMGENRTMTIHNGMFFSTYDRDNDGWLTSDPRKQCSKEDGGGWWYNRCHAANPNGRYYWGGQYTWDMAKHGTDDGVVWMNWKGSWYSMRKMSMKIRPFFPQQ
T1 sequence (P02679 27-437 isoform P02679-2 limits assumed): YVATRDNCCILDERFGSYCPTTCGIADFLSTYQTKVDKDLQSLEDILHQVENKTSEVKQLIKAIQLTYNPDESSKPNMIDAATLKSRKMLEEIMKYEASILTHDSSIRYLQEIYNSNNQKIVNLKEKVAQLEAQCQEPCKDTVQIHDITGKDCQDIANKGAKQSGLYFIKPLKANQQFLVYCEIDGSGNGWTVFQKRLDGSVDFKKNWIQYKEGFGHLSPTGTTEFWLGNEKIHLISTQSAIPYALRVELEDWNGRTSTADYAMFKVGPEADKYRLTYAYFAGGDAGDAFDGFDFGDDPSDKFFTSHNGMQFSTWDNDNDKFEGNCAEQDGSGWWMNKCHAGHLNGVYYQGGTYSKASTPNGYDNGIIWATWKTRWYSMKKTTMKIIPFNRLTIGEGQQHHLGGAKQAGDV
Experimental: Lyophilized human serum was reconstituted in water to reach the typical concentration in blood; fibrinogen from human plasma was dissolved at 3 mg/ml concentrations in buffer B (10 mM HEPES, 150 mM NaCl, pH=7.4). For in situ protein-adsorption experiments, TiO2 coated waveguide sensors were modified with peptidomimetic polymers as explained previously. After equilibration of the OWLS baseline in buffer B, protein solution was injected and allowed to adsorb for 20 min at 37° C. before rinsing with buffer B. A refractive index value of 1.331 27 was used for buffer B, and a standard value of 0.182 cm^3/g was used for dn/dc in the protein-adsorption calculations.

MIC E. coli (E. coli): >100 µM
MIC B. subtilis (B. subtilis): >100 µM
MIC S. epidermidis (S. epidermidis): >100 µM
MIC P. aeruginosa (P. aeruginosa): >100 µM
Adsorbed mass Fibrinogen [1]: 7 ± 3 ng/cm^2
SMILES: COCCN(CC(=O)N(CCOC)CC(=O)N(CCOC)CC(=O)N(CCOC)CC(=O)N(CCOC)CC(=O)N(CCOC)CC(=O)N(CCOC)CC(=O)N(CCOC)CC(=O)N(CCOC)CC(=O)N(CCOC)CC(=O)N(CCOC)CC(=O)N(CCOC)CC(=O)N(CCOC)CC(=O)N(CCOC)CC(=O)N(CCOC)CC(=O)N(CCOC)CC(=O)N(CCOC)CC(=O)N(CCOC)CC(=O)N(CCOC)CC(=O)N(CCOC)CC(=O)N[C@@H](Cc1ccc(O)c(O)c1)C(=O)N[C@@H](CCCCN)C(=O)N[C@@H](Cc1ccc(O)c(O)c1)C(=O)N[C@@H](CCCCN)C(=O)N[C@@H](Cc1ccc(O)c(O)c1)C(N)=O)C(C)=O [PMP1, (Nme)20-(DOPA-Lys)2-DOPA] (Ac-[Nme][Nme][Nme][Nme][Nme][Nme][Nme][Nme][Nme][Nme][Nme][Nme][Nme][Nme][Nme][Nme][Nme][Nme][Nme][Nme][Dopa]K[Dopa]K[Dopa]-NH2; N-terminus and C-terminus assumed)
